Measured values published in PubChem BioAssay (NCI).
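Test compounds were applied to cells in 96-well plates for 48 hours at 5 doses. Abbreviation: GI50, concentration required for 50% inhibition of growth. At the TGI there is no net growth.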

What was measured:
Assay in all cases: growth of human tumour cells (NCI), 48 h
DLD-1 colon = tested on: DLD-1 colon
DMS 114 small cell lung = tested on: DMS 114 small cell lung
HOP-18 NSCLC = tested on: HOP-18 NSCLC
KM20L2 colon = tested on: KM20L2 colon
SNB-78 CNS = tested on: SNB-78 CNS
BT-549 breast = tested on: BT-549 breast
HS 578T breast = tested on: HS 578T breast
MDA-MB-231 breast = tested on: MDA-MB-231 breast
MDA-MB-435 = tested on: MDA-MB-435
T-47D breast = tested on: T-47D breast

| SMILES | TGI (DLD-1 colon) | TGI (DMS 114 small cell lung) | TGI (HOP-18 NSCLC) | TGI (KM20L2 colon) | TGI (SNB-78 CNS) | GI50 (BT-549 breast) | TGI (BT-549 breast) | GI50 (HS 578T breast) | TGI (HS 578T breast) | GI50 (MDA-MB-231 breast) | TGI (MDA-MB-231 breast) | GI50 (MDA-MB-435) | TGI (MDA-MB-435) | GI50 (T-47D breast) | TGI (T-47D breast) | GI50 (DLD-1 colon) | GI50 (HOP-18 NSCLC) |
| --- | --- | --- | --- | --- | --- | --- | --- | --- | --- | --- | --- | --- | --- | --- | --- | --- | --- |
| Cc1ccc(C)c(NC(=O)CCc2n[nH]c(=S)o2)c1 | > 100 µM | > 100 µM | > 100 µM | > 100 µM | > 100 µM |  |  |  |  |  |  |  |  |  |  |  |  |
| COc1cc(C(=O)c2c(-c3ccccc3)oc3ccccc23)cc(OC)c1O |  |  |  |  |  | 1.39 µM | 7.82 µM | 0.898 µM | 8.47 µM | 4.24 µM | 22.5 µM | 0.285 µM | 0.777 µM | 2.14 µM | 31.8 µM |  |  |
| COc1ccc2c3c([nH]c2c1)[C@H]1C[C@H]2[C@H](C[C@@H](O)[C@H](OC)[C@H]2C(=O)O)CN1CC3 |  |  |  |  |  |  | > 100 µM |  | > 100 µM |  | > 100 µM |  | > 100 µM |  | > 100 µM |  |  |
| COS(=O)CCOC(=O)c1ccccc1SSc1ccccc1C(=O)OCCS(=O)OC (stereo unspecified) | > 100 µM | 34.1 µM | > 100 µM | > 100 µM | > 100 µM |  |  |  |  |  |  |  |  |  |  |  |  |
| c1ccc(CN(Cc2ccccn2)Cn2cccn2)nc1 | > 100 µM | 54.6 µM |  | > 100 µM | > 100 µM |  |  |  |  |  |  |  |  |  |  |  |  |
| CC1=CC(=O)c2[nH]c3ccccc3c2C1=O | 8.82 µM | 7.82 µM | 7.5 µM | > 25 µM |  |  |  |  |  |  |  |  |  |  |  | 5.06 µM | 3.35 µM |
| N#CC(/C(=N\NC(N)=S)C(=O)NC1C2CC3CC(C2)CC1C3)c1ccc(Cl)cc1 (stereo unspecified) | > 100 µM | > 100 µM | > 100 µM | > 100 µM | > 100 µM |  |  |  |  |  |  |  |  |  |  |  |  |
| Nc1ccccc1C#Cc1ccccc1C#CCCCCO |  |  |  |  |  | 23.2 µM | 76.5 µM | 35.8 µM | > 100 µM | 16.2 µM | 37 µM | 10.3 µM | 53.9 µM | 30.3 µM | > 100 µM |  |  |
| CC(C)c1cc2c(O)c(c1)Cc1cc(C(C)C)cc(c1O)Cc1cc(C(C)C)cc(c1O)Cc1cc(C(C)C)cc(c1O)Cc1cc(C(C)C)cc(c1O)Cc1cc(C(C)C)cc(c1O)C2 | > 100 µM | > 100 µM |  | > 100 µM | > 100 µM |  |  |  |  |  |  |  |  |  |  |  |  |
| CC(C)S(=O)(=O)n1c(N)nc2ccc(/C(=N/O)c3ccccc3)cc21 | > 100 µM | 43.8 µM |  | 31.8 µM | > 100 µM |  |  |  |  |  |  |  |  |  |  |  |  |
| C/C(=N\N=C(N)N)c1sc(-c2nc(C)c(/C(C)=N/N=C(N)N)s2)nc1C | > 100 µM |  | > 100 µM | > 100 µM | > 100 µM |  |  |  |  |  |  |  |  |  |  |  |  |
| COCCOCCOCCOCCOc1ccc2c(c1)C(=O)c1nc3ncccc3c(=O)n1-2 |  |  |  |  |  | 1.1 µM | 2.3 µM | 1.09 µM | 4.02 µM | 2.93 µM | 52 µM | 0.188 µM | 0.364 µM | 3.03 µM | 9.04 µM |  |  |
| C(=C1/CCCCC([n+]2ccccc2)=N1)/c1ccccc1 | > 100 µM | > 100 µM | > 100 µM | > 100 µM | > 100 µM |  |  |  |  |  |  |  |  |  |  |  |  |
| CCCCCCCCSC(SCCCCCCCC)=C1C(=O)N(c2ccccc2)N=C1C | 50 µM | 63.3 µM | > 100 µM | > 100 µM | > 100 µM |  |  |  |  |  |  |  |  |  |  |  |  |
| C1CCN2CC34CC(CC5CCCN(C6CCCC3N6)C54)C2C1 (stereo unspecified) |  |  |  |  |  |  | > 100 µM |  | > 100 µM |  | > 100 µM |  | > 100 µM |  | > 100 µM |  |  |
| O=C(/C=C/c1cccs1)Nc1ncc(Cc2ccccc2F)s1 |  |  |  |  |  |  | > 100 µM | 0.27 µM | > 100 µM | 0.611 µM | > 100 µM | 0.0312 µM | 0.113 µM | 0.404 µM | > 100 µM |  |  |
| CN1C=CN(Cc2ccc(-c3ccccn3)nc2)[CH-]1.CN1C=CN(Cc2ccc(-c3ccccn3)nc2)[CH-]1.[Au+3] |  |  |  |  |  | 2.46 µM | 20.1 µM | > 40.6 µM | > 100 µM | 2.64 µM | 15 µM | 2.97 µM | 20.9 µM | 1.17 µM | 3.07 µM |  |  |
| O=C(Nc1ccc(-c2nc3ccc(NC(=O)c4ccc(Cl)cc4)cc3[nH]2)cc1)c1ccc(Cl)cc1 |  |  |  |  |  | 6.56 µM | 20.7 µM | 0.0559 µM | 7.9 µM | 3.68 µM | 15.4 µM | 2.36 µM | 7.14 µM | 2.13 µM | 5.01 µM |  |  |
| O=C1CCCC2COc3ccc(O)c1c32 (stereo unspecified) | > 100 µM | > 100 µM |  | > 100 µM | > 100 µM |  |  |  |  |  |  |  |  |  |  |  |  |
| S=C1OC2C3C4CC5C3C(O1)C1C5C4C21 (stereo unspecified) | > 100 µM | > 100 µM | > 100 µM | > 100 µM | > 100 µM |  |  |  |  |  |  |  |  |  |  |  |  |
| COC(=N)/C(=C1\OC(N)=C(c2ccc(Cl)cc2)C1=O)c1ccc(Cl)cc1 | > 100 µM | > 100 µM | > 100 µM | > 100 µM | > 100 µM |  |  |  |  |  |  |  |  |  |  |  |  |
| CCCC/C(C)=N/NC(N)=S | > 100 µM | > 100 µM | > 100 µM | > 100 µM | > 100 µM |  |  |  |  |  |  |  |  |  |  |  |  |
| Cc1cc(C(=O)NCCN(C)C)c2nc3ccccc3nc2c1 | 48.9 µM | 14.4 µM | > 88.8 µM | 15.1 µM | 47.2 µM |  |  |  |  |  |  |  |  |  |  |  |  |
| OCC(O)C(OC1OC(CO)C(O)C(O)C1O)c1nn(-c2ccc(F)cc2)c2nc3cc(Cl)c(Cl)cc3cc12 (stereo unspecified) | > 100 µM | > 100 µM |  | > 100 µM | > 100 µM |  |  |  |  |  |  |  |  |  |  |  |  |
| COc1cc(Nc2ncc(-c3ccccc3)o2)cc(OC)c1OC |  |  |  |  |  | 3.24 µM | > 25 µM | 0.278 µM | 4.55 µM | 2.5 µM | > 25 µM | 0.154 µM | > 5.89 µM | 0.231 µM | > 25 µM |  |  |
| COc1ccc(/C=C/CO)cc1OC |  | > 100 µM |  | > 100 µM | > 100 µM |  |  |  |  |  |  |  |  |  |  |  |  |
| CC1=C[C@H]2C[C@@]3(C)O[C@@H]([C@]4(C)CC[C@H]([C@@H](C)C(=O)O)OO4)CC3C(C)(C)[C@H]2CC1 (stereo partly specified) | 2.47 µM | 3.32 µM |  | 3.91 µM | 2.78 µM |  |  |  |  |  |  |  |  |  |  |  |  |
| O=C(N/N=C\c1cc(Cl)ccc1O)N/N=C/c1cc(Cl)ccc1O |  |  |  |  |  | > 100 µM | > 100 µM | 0.643 µM | > 100 µM | 4.3 µM | > 100 µM | 1.36 µM | > 100 µM | 2.32 µM | > 100 µM |  |  |
| CCn1c(-c2cc3ccccc3cc2OC(=O)c2ccccc2)n[nH]c1=S |  |  |  |  |  | 34 µM | > 50 µM | 11.6 µM | 44.8 µM | 25.2 µM | > 50 µM | > 50 µM | > 50 µM | 38.3 µM | > 50 µM |  |  |
